Where two headings read alike, the source gives them in different places.
Experiments:
[1] = molecular target: T1, human progesterone receptor (PR) (Homo sapiens, UniProt P06401); test: Test of progesterone receptor antagonist activity (MMTV-luciferase transactivation with progesterone 1 nM); format: cell-based; conditions: HEK293T cells, progesterone 1 nM plus increasing amounts; FIG. 2
T1 construct: expressed in transfected cells; host or cells: HEK293T
T1 sequence (P06401 1-933): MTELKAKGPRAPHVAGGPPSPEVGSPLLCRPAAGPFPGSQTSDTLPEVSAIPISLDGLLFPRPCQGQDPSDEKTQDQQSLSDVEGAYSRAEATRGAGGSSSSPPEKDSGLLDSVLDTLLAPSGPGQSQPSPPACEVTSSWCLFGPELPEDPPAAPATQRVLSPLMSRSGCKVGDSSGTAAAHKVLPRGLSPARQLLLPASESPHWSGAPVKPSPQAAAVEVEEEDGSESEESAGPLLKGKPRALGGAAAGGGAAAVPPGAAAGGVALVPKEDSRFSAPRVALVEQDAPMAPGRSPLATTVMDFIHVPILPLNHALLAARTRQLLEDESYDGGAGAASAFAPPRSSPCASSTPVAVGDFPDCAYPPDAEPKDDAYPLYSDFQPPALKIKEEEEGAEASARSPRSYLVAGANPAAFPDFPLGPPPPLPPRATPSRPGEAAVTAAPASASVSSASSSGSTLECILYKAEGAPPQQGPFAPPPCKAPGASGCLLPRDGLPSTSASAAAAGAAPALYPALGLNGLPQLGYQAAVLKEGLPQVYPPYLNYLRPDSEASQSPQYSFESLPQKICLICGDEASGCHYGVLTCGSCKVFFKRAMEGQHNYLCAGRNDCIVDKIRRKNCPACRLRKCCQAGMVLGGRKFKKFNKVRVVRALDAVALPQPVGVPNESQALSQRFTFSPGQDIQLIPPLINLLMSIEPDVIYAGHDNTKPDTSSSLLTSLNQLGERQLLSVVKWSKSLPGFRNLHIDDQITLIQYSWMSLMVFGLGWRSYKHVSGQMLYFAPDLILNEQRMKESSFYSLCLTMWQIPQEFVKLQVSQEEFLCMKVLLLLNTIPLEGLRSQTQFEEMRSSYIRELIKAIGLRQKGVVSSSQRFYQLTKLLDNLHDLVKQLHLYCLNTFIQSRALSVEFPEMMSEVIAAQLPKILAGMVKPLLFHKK
Procedure: The main experimental setting used is the following: HEK293T cells were transiently transfected, using calcium phosphate precipitation technology, with expression vectors pSG5hPR (which permits expression of human progesterone receptor (PR)), pFC31-luc (contains the luciferase gene under the control of the MMTV promoter, which is in turn activated by binding of a progestin to progesterone receptor) and pcbetagal (which permits expression of betagalactosidase), and cultured during 24 hours with increasing amounts of various compositions:
Test of progesterone receptor […] activity: transfected cells were cultured with progesterone (1 nM) and increasing amounts of RU486 (a well-known progesterone receptor antagonist) or 3-methoxy-pregnenolone.
With this setting, a compound with progesterone receptor antagonist activity competes with progesterone for the occupation of progesterone receptor and results in a progressive loss of transactivation activity when the amount of this compound is increased compared to progesterone.

Noradrenergic α1 = test: CNS receptor binding assay, α1; conditions: MAP4343 10 μM; [3H] prazosin; rat cerebral cortex
Source text: (§1) MAP4343 has been screened for in vitro affinity to 80 different CNS neurotransmitters receptors using various validated binding assays.

GABA (non-selective) = test: CNS receptor binding assay, GABA; conditions: MAP4343 10 μM; [3H] GABA; rat cerebral cortex
Source text: as §1

Wistar Kyoto (WKY) rats = test: Forced swimming test (FST) in WKY rats; format: in vivo, rat; conditions: FIG. 6B
Procedure: After a 6-day period of acclimatization, all experimental groups received daily successive subcutaneous (250 μl per rat) and intraperitoneal (1 ml/kg) injections. WI rats received injection of vehicle (sesame oil+saline) while WKY rats were randomly assigned to three experimental groups, as follow: KWY rats receiving only vehicle ([…]; rats received in parallel i.p. injections of saline), fluoxetine (10 mg/kg i.p., rats received in parallel s.c. injections of sesame oil) or ketamine (30 mg/kg, i.p.; rats received in parallel s.c. injections of sesame oil) (see FIG. 3).
(§2) After, a 6-day period of acclimatization, the acute phase of treatment started for 4 days during behavioral tests were performed (FIG. 3). All animals were injected 1 h 30 before the starting of behavioral test.
Rats were submitted to the forced swimming test (FST), according the procedure initially described by (Detke et al., 1995) and slightly modified by (Bianchi et al., 2002). Briefly, rats were individually placed into a Plexiglas cylinder (40 cm height, 20 cm diameter) containing 25 cm of water at 25±1° C., under 50 lux illumination. […] The pre-test and test sessions were recorded using a video camera placed above the cylinder for subsequent behavioral analysis. The immobility time (in sec) was blindly measured by two independent experimenters from recorded videos. […]

Wistar (WI) rats = test: Forced swimming test (FST) in WI rats, dose-ranging; format: in vivo, rat; conditions: FIG. 6A
Procedure: as §2
Rats were submitted to the forced swimming test (FST), according the procedure initially described by (Detke et al., 1995) and slightly modified by (Bianchi et al., 2002). Briefly, rats were individually placed into a Plexiglas cylinder (40 cm height, 20 cm diameter) containing 25 cm of water at 25±1° C., under 50 lux illumination. After a pre-test session of 15 min, rats were removed, dried and returned to its housed cage. Twenty-four hours after the pre-test session, rats were still placed in the swim cylinder (under identical conditions) for the 5-min test session. The pre-test and test sessions were recorded using a video camera placed above the cylinder for subsequent behavioral analysis. The immobility time (in sec) was blindly measured by two independent experimenters from recorded videos. Rats were considered as immobile when none activity was observed other than that required to keep the rat's head above the water.

MAP2 = test: Binding (affinity) by displacement of PREG-3H
[2] = tested on: adult male Sprague Dawley rats; conditions: U.S. Pat. No. 8,334,278, cited from earlier work
[3] = tested on: social-isolated adult male Sprague Dawley rats; conditions: cited from earlier work

Question: Which “progesterone receptor antagonist activity (loss of transactivation)” value [1] does the source give for `CO[C@H]1CC[C@@]2(C)C(=CC[C@H]3[C@@H]4CC[C@H](C(C)=O)[C@@]4(C)CC[C@@H]32)C1` [MAP4343, 3β-methoxy-pregna-5-ene-20-one] here?
Answer: Its value is “weak progesterone receptor antagonist”.

Question: What about the “% Inhibition of control specific binding” value (Noradrenergic α1) of the same molecule?
Answer: The value was 4%.

Question: And the “% Inhibition of control specific binding” value (GABA (non-selective))?
Answer: Its value is 2%.

Question: And the “immobility time in FST, dose-ranging effect” value (Wistar Kyoto (WKY) rats; MAP4343 1, 5, 10 and 15 mg/kg)?
Answer: Its value is “dose-dependent decrease of immobility time”.

Question: What about the “immobility time in FST, change vs WKY receiving vehicle alone” value (Wistar Kyoto (WKY) rats; dose-ranging, MAP4343 15 mg/kg) of the same molecule?
Answer: Its value is −25%.

Question: And the “immobility time in FST, change vs WI receiving vehicle alone” value (Wistar (WI) rats; MAP4343 10 mg/kg)?
Answer: Its value is −27%.

Question: What about the “immobility time in FST, change vs WI receiving vehicle alone” value (Wistar (WI) rats; MAP4343 15 mg/kg) of the same molecule?
Answer: Its value is −31%.

Question: What about the “immobility time in FST, dose-ranging effect” value (Wistar (WI) rats; MAP4343 1, 5, 10 and 15 mg/kg) of the same molecule?
Answer: The value was “dose-dependent reduction of immobility time”.

Question: And the Affinity (MAP2)?
Answer: The Affinity was 100% of PREG.

Question: What about the “memory retention in NOR” value ([2]; naïve adult male Sprague Dawley rats) of the same molecule?
Answer: The value was “increases memory retention”.

Question: And the “memory deficit in the NOR test” value ([2]; social-isolated adult male Sprague Dawley rats)?
Answer: The value was “induces recovery of memory deficit”.

Question: And the “anxiety in the EPM test” value ([3]; acute phase (2 days of daily injections))?
Answer: Its value is “not in the acute phase”.

Question: What about the “anxiety in the EPM test” value ([3]; subchronic phase (8 days of daily injections)) of the same molecule?
Answer: The value was “recovered increased anxiety”.

Source: patent US9943528B2 (MAPREG, priority 2016, dated 2018)
